Square brackets hold non-standard residues; d marks the D form. Peptide text beside a SMILES is read from it. Trp(5-OH) = N[C@@H](Cc1c[nH]c2ccc(O)cc12)C(=O)O; NMeW = CN[C@@H](Cc1c[nH]c2ccccc12)C(=O)O; Orn = NCCC[C@H](N)C(=O)O

In this experiment the target is Angiotensin-converting enzyme (Bos taurus). Nature of the experiment: Inhibition of ACE in bovine kidney.
As usually defined, the IC50 is the point on the concentration scale where inhibition reaches its midpoint. `NCCC[C@H](NC(=O)CCc1nc2ccccc2[nH]1)C(=O)N1CCC[C@H]1C(=O)O` [BPA-Lys-Pro] registered a concentration for half-maximal inhibition (IC50) of 10 µM.

`NCCC[C@H](NC(=O)[C@@H](N)Cc1c[nH]c2ccc(O)cc12)C(=O)N1CCC[C@H]1C(=O)O` [HTP-Orn-Pro] (H-[Trp(5-OH)]-[Orn]-Pro-OH) gave an IC50 of 4 µM. This IC50 lies about 2.5-fold lower than the previous one.

Consider `CN[C@@H](Cc1c[nH]c2ccccc12)C(=O)N[C@@H](CCCN)C(=O)N1CCC[C@H]1C(=O)O` [MTP-Orn-Pro] (H-[NMeW]-[Orn]-Pro-OH), for which the IC50 amounted to 10 µM. Compared with the last compound, the IC50 is about 2.5-fold higher.

Values taken from BindingDB's records for doi:10.1016/j.bmcl.2006.01.061 (Institute of Genomics and Integrative Biology, 2006).
